Data published in patent publication US20220403001A1, “PDE5 DERIVED REGULATORY CONSTRUCTS AND METHODS OF USE IN IMMUNOTHERAPY” (Obsidian Therapeutics, Inc., priority 2018, published 2022).
Read-outs that look alike come from different tables or passages of the source.

Key:
hPDE5 mutants [1] = assay: Western blot of AcGFP/GFP protein levels in HCT 116 cells expressing hPDE5 mutants; assay type: cell-based, human; settings: 10 μM Vardenafil, 24 hours, HCT 116
Protocol: Protein expression analysis of the combination mutants was performed in parallel via western blot. […] GAPDH levels were also analyzed to ensure even protein loading.

hPDE5 mutants [2] = assay: GFP MFI by FACS in HCT116 cells transduced with hPDE5 constructs; assay type: cell-based, human; settings: for MFI / Stabilization ratio / Vardenafil dose response (MFI of GFP): HCT116; for Sildenafil dose response (MFI) / Tadalafil dose response (MFI): HCT 116
hPDE5 mutants [3] = molecular target: hPDE5 mutants (Homo sapiens, UniProt O76074); assay: as above; assay type: cell-based; settings: HCT-116
hPDE5 mutants [4] = assay: GFP expression (MFI) by FACS in HEK293 cells expressing hPDE5 constructs
[5] = approved dose, cited from earlier work
hPDE5 Y612A = hPDE5 Y612A (Homo sapiens, UniProt O76074, Y612A); settings: Y612A ablates hydrogen bonding and hydrophobic bonding potential; Corbin et al. 2006; cited from earlier work
hPDE5 Y612F = hPDE5 Y612F (Homo sapiens, UniProt O76074, Y612F); settings: Y612F ablates hydrogen bonding potential; Corbin et al. 2006; cited from earlier work
hPDE5 mutants [6] = assay: Immunoblot (AcGFP antibody) of hPDE5-AcGFP constructs in HEK293 cells; assay type: cell-based, human; settings: compared with wildtype OT-001075
Text: Puro and used as a control.
Cell lysates obtained from hPDE5N construct expressing cells were immunoblotted using the AcGFP antibody (Clonetech, Mountain View, Calif.). Samples were also immunoblotted with the GAPDH antibody to ensure uniform protein loading.

[7] = Sildenafil 0.0005 μM, 48 h, HEK293
[8] = Sildenafil 3.33 μM, 48 h, HEK293
[9] = Sildenafil 10 μM, 48 h, HEK293 (dose titration)
[10] = Sildenafil 10 μM, 48 h, HEK293 (time course)
[11] = Vardenafil 0.0005 μM, 48 h, HEK293
[12] = Vardenafil 3.33 μM, 48 h, HEK293
[13] = Vardenafil (10 μM), 48 h, Table 25, cell line not given in table

In the case of “OT-001222: hPDE5 (F736A, D764N) GFP construct”, the “AcGFP protein levels (western blot)” value (hPDE5 mutants [1]) is reported as “Vardenafil dependent stabilization of AcGFP protein levels”, the “Vardenafil Stabilization ratio” value (hPDE5 mutants [2]; 10 μM, 48 h, HCT-116) is reported as 4.26 and the “MFI DMSO” value (hPDE5 mutants [2]; GFP, DMSO 48 h, HCT-116) is reported as 12633. It also gave an MFI (hPDE5 mutants [2]; Sildenafil 0.04 μM, 24 h) of 8688, a Stabilization ratio (hPDE5 mutants [2]; Sildenafil 0.04 μM, 24 h) of 0.81 and an MFI (hPDE5 mutants [2]; Sildenafil 0.5 μM, 4 hours) of 5322. For the same molecule, the Stabilization ratio (hPDE5 mutants [2]; Sildenafil 0.5 μM, 4 hours) was 1.64, the MFI (hPDE5 mutants [2]; Sildenafil 0.5 μM, 8 hours) was 5083 and the Stabilization ratio (hPDE5 mutants [2]; Sildenafil 0.5 μM, 8 hours) was 1.57. For the same molecule, the MFI (hPDE5 mutants [2]; Sildenafil 0.5 μM, 12 hours) was 5122, the Stabilization ratio (hPDE5 mutants [2]; Sildenafil 0.5 μM, 12 hours) was 1.58 and the MFI (hPDE5 mutants [2]; Sildenafil 0.5 μM, 16 hours) was 5600. The Stabilization ratio (hPDE5 mutants [2]; Sildenafil 0.5 μM, 16 hours) was 1.73, the MFI (hPDE5 mutants [2]; Sildenafil 0.5 μM, 20 hours) was 6003 and the Stabilization ratio (hPDE5 mutants [2]; Sildenafil 0.5 μM, 20 hours) was 1.85. For the same molecule, the MFI (hPDE5 mutants [2]; Sildenafil 0.5 μM, 24 hours) was 6144, the Stabilization ratio (hPDE5 mutants [2]; Sildenafil 0.5 μM, 24 hours) was 1.89 and the MFI (hPDE5 mutants [2]; Sildenafil 0.5 μM, 48 hours) was 6682. The Stabilization ratio (hPDE5 mutants [2]; Sildenafil 0.5 μM, 48 hours) was 2.06, the MFI (hPDE5 mutants [2]; Sildenafil 0.5 μM, 72 hours) was 6906 and the Stabilization ratio (hPDE5 mutants [2]; Sildenafil 0.5 μM, 72 hours) was 2.13. The MFI (hPDE5 mutants [2]; Sildenafil 3.33 μM, 24 h) was 10384, the Stabilization ratio (hPDE5 mutants [2]; Sildenafil 3.33 μM, 24 h) was 0.97 and the MFI (hPDE5 mutants [2]; Sildenafil 5 μM, 4 hours) was 6314. The Stabilization ratio (hPDE5 mutants [2]; Sildenafil 5 μM, 4 hours) was 1.88, the MFI (hPDE5 mutants [2]; Sildenafil 5 μM, 8 hours) was 7021 and the Stabilization ratio (hPDE5 mutants [2]; Sildenafil 5 μM, 8 hours) was 2.09. It also gave an MFI (hPDE5 mutants [2]; Sildenafil 5 μM, 12 hours) of 9199, a Stabilization ratio (hPDE5 mutants [2]; Sildenafil 5 μM, 12 hours) of 2.73 and an MFI (hPDE5 mutants [2]; Sildenafil 5 μM, 16 hours) of 12280. The Stabilization ratio (hPDE5 mutants [2]; Sildenafil 5 μM, 16 hours) was 3.65, the MFI (hPDE5 mutants [2]; Sildenafil 5 μM, 20 hours) was 13280 and the Stabilization ratio (hPDE5 mutants [2]; Sildenafil 5 μM, 20 hours) was 3.95. For the same molecule, the MFI (hPDE5 mutants [2]; Sildenafil 5 μM, 24 hours) was 16705, the Stabilization ratio (hPDE5 mutants [2]; Sildenafil 5 μM, 24 hours) was 4.97 and the MFI (hPDE5 mutants [2]; Sildenafil 5 μM, 48 hours) was 22061. It also gave a Stabilization ratio (hPDE5 mutants [2]; Sildenafil 5 μM, 48 hours) of 6.56, an MFI (hPDE5 mutants [2]; Sildenafil 5 μM, 72 hours) of 26995 and a Stabilization ratio (hPDE5 mutants [2]; Sildenafil 5 μM, 72 hours) of 8.02. For the same molecule, the MFI (hPDE5 mutants [2]; Sildenafil 10 μM, 24 h) was 13263, the Stabilization ratio (hPDE5 mutants [2]; Sildenafil 10 μM, 24 h) was 1.24 and the “Sildenafil dose response (MFI)” value (hPDE5 mutants [2]; Sildenafil 11.11 μM, 48 h) was 5675. The MFI (hPDE5 mutants [2]; Sildenafil 30 μM, 24 h) was 26837, the Stabilization ratio (hPDE5 mutants [2]; Sildenafil 30 μM, 24 h) was 2.5 and the “Sildenafil dose response (MFI)” value (hPDE5 mutants [2]; Sildenafil 33.33 μM, 48 h) was 9677. The “Sildenafil dose response (MFI)” value (hPDE5 mutants [2]; Sildenafil 100.00 μM, 48 h) was 37494, the “Destabilizing mutation co-efficient ratio” value (hPDE5 mutants [2]; Sildenafil dose response experiment (Table 27), vs OT-001216) was 0.17 and the “Vardenafil dose response (MFI of GFP)” value (hPDE5 mutants [2]; Table 33, 0.01 μM, 48 h) was 4444. The “Vardenafil dose response (MFI of GFP)” value (hPDE5 mutants [2]; Table 33, 0.04 μM, 48 h) was 4934, the “Vardenafil dose response (MFI of GFP)” value (hPDE5 mutants [2]; Table 33, 3.33 μM, 48 h) was 10516 and the “Vardenafil dose response (MFI of GFP)” value (hPDE5 mutants [2]; Table 33, 10.00 μM, 48 h) was 24927. The MFI (hPDE5 mutants [2]; Tadalafil 11.11 μM, 24 h) was 13789, the Stabilization ratio (hPDE5 mutants [2]; Tadalafil 11.11 μM, 24 h) was 2.28 and the “Tadalafil dose response (MFI)” value (hPDE5 mutants [2]; Tadalafil 11.11 μM, 48 h) was 8299. For the same molecule, the MFI (hPDE5 mutants [2]; Tadalafil 33.33 μM, 24 h) was 20464, the Stabilization ratio (hPDE5 mutants [2]; Tadalafil 33.33 μM, 24 h) was 3.39 and the “Tadalafil dose response (MFI)” value (hPDE5 mutants [2]; Tadalafil 33.33 μM, 48 h) was 15831. For the same molecule, the MFI (hPDE5 mutants [2]; Tadalafil 100 μM, 24 h) was 23542, the Stabilization ratio (hPDE5 mutants [2]; Tadalafil 100 μM, 24 h) was 3.9 and the “Tadalafil dose response (MFI)” value (hPDE5 mutants [2]; Tadalafil 100.00 μM, 48 h) was 31020. It also gave a Destabilizing mutation coefficient (hPDE5 mutants [2]; Tadalafil dose response experiment (Table 29), vs OT-001216) of 0.17, an MFI (hPDE5 mutants [2]; Vardenafil 0.04 μM, 24 h) of 6174 and a Stabilization ratio (hPDE5 mutants [2]; Vardenafil 0.04 μM, 24 h) of 0.80. It also gave an MFI (hPDE5 mutants [2]; Vardenafil 3.33 μM, 24 h) of 29520, a Stabilization ratio (hPDE5 mutants [2]; Vardenafil 3.33 μM, 24 h) of 3.84 and an MFI (hPDE5 mutants [2]; Vardenafil 10 μM, 24 h) of 29971. The Stabilization ratio (hPDE5 mutants [2]; Vardenafil 10 μM, 24 h) was 3.90, the MFI (hPDE5 mutants [2]; Vardenafil 30 μM, 24 h) was 46109 and the Stabilization ratio (hPDE5 mutants [2]; Vardenafil 30 μM, 24 h) was 5.99. The Destabilizing mutation coefficient (hPDE5 mutants [2]; Vardenafil dose response experiment (Table 28), vs OT-001216) was 0.12, the Destabilizing mutation coefficient (hPDE5 mutants [2]; vs wildtype OT-001216, absence of ligand, HCT-116) was 0.19 and the “Sildenafil Stabilization ratio” value (hPDE5 mutants [3]; 10 μM, 48 h) was 1.10. The “Vardenafil Stabilization ratio” value (hPDE5 mutants [3]; 10 μM, 48 h) was 4.26, the “MFI Sildenafil” value (hPDE5 mutants [3]; GFP, 10 μM Sildenafil 48 h) was 13862 and the “MFI Vardenafil” value (hPDE5 mutants [3]; GFP, 10 μM Vardenafil 48 h) was 53848.

For `CCCc1nn(C)c2c(=O)[nH]c(-c3cc(S(=O)(=O)N4CCN(C)CC4)ccc3OCC)nc12` [Sildenafil], the EC50 (hPDE5 mutants [4]; read-out: EC50 of ligand dependent stabilization, HEK293 cells expressing OT-001076, OT-001083, OT-001084, 48 h) is listed as […], the Cmax ([5]; IV) is listed as 1000 nM and the Cmax ([5]; PO) is listed as 1000 nM. The “effect of Y612A mutation on inhibition of hPDE5 catalytic activity by ligand” value (hPDE5 Y612A) was “to a lesser extent” and the “effect of Y612F mutation on inhibition of hPDE5 activity by ligand” value (hPDE5 Y612F) was “increases the inhibition of hPDE5 activity”.

Work on OT-001076: hPDE5-F736A AcGFP construct yielded an MFI (hPDE5 mutants [4]; [7]) of 6848, a Stabilization ratio (hPDE5 mutants [4]; [7]) of 0.97 and an MFI (hPDE5 mutants [4]; [8]) of 49220. The Stabilization ratio (hPDE5 mutants [4]; [8]) was 7.00, the MFI (hPDE5 mutants [4]; Sildenafil 10 μM, 2 h, HEK293) was 12088 and the Stabilization ratio (hPDE5 mutants [4]; Sildenafil 10 μM, 2 h, HEK293) was 1.54. The MFI (hPDE5 mutants [4]; Sildenafil 10 μM, 4 h, HEK293) was 14046, the Stabilization ratio (hPDE5 mutants [4]; Sildenafil 10 μM, 4 h, HEK293) was 1.77 and the MFI (hPDE5 mutants [4]; Sildenafil 10 μM, 6 h, HEK293) was 16710. It also gave a Stabilization ratio (hPDE5 mutants [4]; Sildenafil 10 μM, 6 h, HEK293) of 2.11, an MFI (hPDE5 mutants [4]; Sildenafil 10 μM, 16 h, HEK293) of 39029 and a Stabilization ratio (hPDE5 mutants [4]; Sildenafil 10 μM, 16 h, HEK293) of 4.93. It also gave an MFI (hPDE5 mutants [4]; Sildenafil 10 μM, 24 h, HEK293) of 51534, a Stabilization ratio (hPDE5 mutants [4]; Sildenafil 10 μM, 24 h, HEK293) of 6.51 and an MFI (hPDE5 mutants [4]; [9]) of 67084. For the same molecule, the Stabilization ratio (hPDE5 mutants [4]; [9]) was 9.53, the MFI (hPDE5 mutants [4]; [10]) was 70811 and the Stabilization ratio (hPDE5 mutants [4]; [10]) was 8.94. It also gave an MFI (hPDE5 mutants [4]; [11]) of 11770, a Stabilization ratio (hPDE5 mutants [4]; [11]) of 1.04 and an MFI (hPDE5 mutants [4]; [12]) of 172990. The Stabilization ratio (hPDE5 mutants [4]; [12]) was 15.33, the MFI (hPDE5 mutants [4]; Vardenafil 10 μM, 48 h, HEK293) was 188068 and the Stabilization ratio (hPDE5 mutants [4]; Vardenafil 10 μM, 48 h, HEK293) was 16.66. The Stabilization ratio (hPDE5 mutants [4]; Vardenafil (1 μM), 48 h, Table 25, cell line not given in table) was 11.52, the MFI (hPDE5 mutants [4]; Vardenafil (1 μM), 48 h, Table 25, cell line not given in table (HEK293, HCT-116, SKOV-3)) was 110603 and the MFI (hPDE5 mutants [4]; [13]) was 143351. The Stabilization ratio (hPDE5 mutants [4]; [13]) was 14.93 and the “hPDE5-GFP levels with DMSO treatment (immunoblot)” value (hPDE5 mutants [6]) was “lower than in the wildtype hPDE5 construct”.
